# Data as given in patent publication US9260417B2, “Therapeutic methods and compositions involving allosteric kinase inhibition” (AMITECH THERAPEUTIC SOLUTIONS, INC., priority 2010, dated 2016).
# How the values were obtained:
# AMPK-alpha1 = AMPK-alpha1 (Homo sapiens (Human), UniProt Q13131); test: KINOMEscan competitive binding assay; conditions: 10 uM
# Description: (§1) In vitro kinase screen and competitive binding assay. Sorafenib as well as test compounds were submitted to Invitrogen and screened using their SelectScreen™ Profiling Service.
# ARK5 = ARK5 (Homo sapiens (Human), UniProt O60285); test: KINOMEscan competitive binding assay; conditions: 10 uM
# Description: as §1
# AXL = AXL (Homo sapiens (Human), UniProt P30530); test: KINOMEscan competitive binding assay; conditions: 10 uM
# Description: as §1
# BMX = BMX (Homo sapiens (Human), UniProt P51813); test: KINOMEscan competitive binding assay; conditions: 10 uM
# Chain of BMX (P51813 whole entry): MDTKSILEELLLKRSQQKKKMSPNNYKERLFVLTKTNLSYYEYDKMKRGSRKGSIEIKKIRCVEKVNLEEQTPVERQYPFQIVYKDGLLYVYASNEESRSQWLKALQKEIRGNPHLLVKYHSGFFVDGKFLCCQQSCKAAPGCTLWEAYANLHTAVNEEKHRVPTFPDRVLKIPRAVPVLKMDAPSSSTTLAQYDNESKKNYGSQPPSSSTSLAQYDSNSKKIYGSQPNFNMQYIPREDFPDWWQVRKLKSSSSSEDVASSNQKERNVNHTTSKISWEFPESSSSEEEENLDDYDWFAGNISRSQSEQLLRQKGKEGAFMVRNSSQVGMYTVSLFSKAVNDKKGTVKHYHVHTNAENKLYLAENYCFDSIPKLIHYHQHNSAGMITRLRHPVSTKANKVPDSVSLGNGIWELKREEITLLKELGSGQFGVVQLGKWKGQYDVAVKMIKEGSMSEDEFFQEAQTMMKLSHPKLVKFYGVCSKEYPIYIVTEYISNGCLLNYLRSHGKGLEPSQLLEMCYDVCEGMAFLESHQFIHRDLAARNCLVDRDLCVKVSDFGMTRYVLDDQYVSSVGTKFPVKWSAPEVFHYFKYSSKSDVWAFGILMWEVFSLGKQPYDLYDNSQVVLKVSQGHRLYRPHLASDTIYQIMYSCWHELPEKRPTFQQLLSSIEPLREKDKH
# Description: as §1
# BRAF(V600E) = BRAF(V600E) (Homo sapiens (Human), UniProt P15056, V600E); test: KINOMEscan competitive binding assay; conditions: 10 uM
# Description: as §1
# CDK2 = CDK2 (Homo sapiens (Human), UniProt P24941); test: KINOMEscan competitive binding assay; conditions: 10 uM
# Description: as §1
# CDK3 = CDK3 (Homo sapiens (Human), UniProt Q00526); test: KINOMEscan competitive binding assay; conditions: 10 uM
# Description: as §1
# CDK5 = CDK5 (Homo sapiens (Human), UniProt Q00535); test: KINOMEscan competitive binding assay; conditions: 10 uM
# Chain of CDK5 (Q00535 whole entry): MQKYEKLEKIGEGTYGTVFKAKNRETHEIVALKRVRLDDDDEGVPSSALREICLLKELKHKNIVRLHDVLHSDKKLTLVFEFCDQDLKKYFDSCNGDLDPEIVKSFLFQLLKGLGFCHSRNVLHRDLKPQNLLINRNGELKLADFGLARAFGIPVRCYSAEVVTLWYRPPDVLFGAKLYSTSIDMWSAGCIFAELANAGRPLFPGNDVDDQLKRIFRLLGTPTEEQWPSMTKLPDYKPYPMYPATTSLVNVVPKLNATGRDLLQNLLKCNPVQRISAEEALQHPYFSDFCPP
# Description: as §1
# CDK7 = CDK7 (Homo sapiens (Human), UniProt P50613); test: KINOMEscan competitive binding assay; conditions: 10 uM
# Chain of CDK7 (P50613 whole entry): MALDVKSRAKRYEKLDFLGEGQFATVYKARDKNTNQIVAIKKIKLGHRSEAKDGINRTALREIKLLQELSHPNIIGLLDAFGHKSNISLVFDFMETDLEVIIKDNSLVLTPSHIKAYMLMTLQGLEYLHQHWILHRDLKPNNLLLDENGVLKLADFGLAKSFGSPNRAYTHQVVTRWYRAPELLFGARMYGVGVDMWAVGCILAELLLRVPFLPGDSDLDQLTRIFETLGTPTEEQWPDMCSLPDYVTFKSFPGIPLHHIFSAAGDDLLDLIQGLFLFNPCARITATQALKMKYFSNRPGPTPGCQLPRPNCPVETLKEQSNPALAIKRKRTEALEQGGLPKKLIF
# Description: as §1
# CLK2 = CLK2 (Homo sapiens (Human), UniProt P49760); test: KINOMEscan competitive binding assay; conditions: 10 uM
# Chain of CLK2 (P49760 whole entry): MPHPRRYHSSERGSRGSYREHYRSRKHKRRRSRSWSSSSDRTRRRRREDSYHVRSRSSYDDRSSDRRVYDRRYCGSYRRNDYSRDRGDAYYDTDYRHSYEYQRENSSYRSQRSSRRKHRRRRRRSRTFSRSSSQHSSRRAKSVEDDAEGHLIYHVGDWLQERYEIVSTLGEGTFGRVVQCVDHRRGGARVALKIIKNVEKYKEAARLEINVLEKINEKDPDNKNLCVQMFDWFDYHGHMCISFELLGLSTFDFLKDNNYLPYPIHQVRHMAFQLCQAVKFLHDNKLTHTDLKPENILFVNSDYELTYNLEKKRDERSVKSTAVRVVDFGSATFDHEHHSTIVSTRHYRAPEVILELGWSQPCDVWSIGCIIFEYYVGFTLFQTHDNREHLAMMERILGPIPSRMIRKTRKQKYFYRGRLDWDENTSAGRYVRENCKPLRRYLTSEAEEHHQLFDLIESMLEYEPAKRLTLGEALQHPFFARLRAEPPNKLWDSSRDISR
# Description: as §1
# EPHA2 = EPHA2 (Homo sapiens (Human), UniProt P29317); test: KINOMEscan competitive binding assay; conditions: 10 uM
# Description: as §1
# EPHB4 = EPHB4 (Homo sapiens (Human), UniProt P54760); test: KINOMEscan competitive binding assay; conditions: 10 uM
# Description: as §1
# ERK2 = ERK2 (Homo sapiens (Human), UniProt P28482); test: KINOMEscan competitive binding assay; conditions: 10 uM
# Description: as §1
# FAK = FAK (Homo sapiens (Human), UniProt Q05397); test: KINOMEscan competitive binding assay; conditions: 10 uM
# Chain of FAK (Q05397 whole entry): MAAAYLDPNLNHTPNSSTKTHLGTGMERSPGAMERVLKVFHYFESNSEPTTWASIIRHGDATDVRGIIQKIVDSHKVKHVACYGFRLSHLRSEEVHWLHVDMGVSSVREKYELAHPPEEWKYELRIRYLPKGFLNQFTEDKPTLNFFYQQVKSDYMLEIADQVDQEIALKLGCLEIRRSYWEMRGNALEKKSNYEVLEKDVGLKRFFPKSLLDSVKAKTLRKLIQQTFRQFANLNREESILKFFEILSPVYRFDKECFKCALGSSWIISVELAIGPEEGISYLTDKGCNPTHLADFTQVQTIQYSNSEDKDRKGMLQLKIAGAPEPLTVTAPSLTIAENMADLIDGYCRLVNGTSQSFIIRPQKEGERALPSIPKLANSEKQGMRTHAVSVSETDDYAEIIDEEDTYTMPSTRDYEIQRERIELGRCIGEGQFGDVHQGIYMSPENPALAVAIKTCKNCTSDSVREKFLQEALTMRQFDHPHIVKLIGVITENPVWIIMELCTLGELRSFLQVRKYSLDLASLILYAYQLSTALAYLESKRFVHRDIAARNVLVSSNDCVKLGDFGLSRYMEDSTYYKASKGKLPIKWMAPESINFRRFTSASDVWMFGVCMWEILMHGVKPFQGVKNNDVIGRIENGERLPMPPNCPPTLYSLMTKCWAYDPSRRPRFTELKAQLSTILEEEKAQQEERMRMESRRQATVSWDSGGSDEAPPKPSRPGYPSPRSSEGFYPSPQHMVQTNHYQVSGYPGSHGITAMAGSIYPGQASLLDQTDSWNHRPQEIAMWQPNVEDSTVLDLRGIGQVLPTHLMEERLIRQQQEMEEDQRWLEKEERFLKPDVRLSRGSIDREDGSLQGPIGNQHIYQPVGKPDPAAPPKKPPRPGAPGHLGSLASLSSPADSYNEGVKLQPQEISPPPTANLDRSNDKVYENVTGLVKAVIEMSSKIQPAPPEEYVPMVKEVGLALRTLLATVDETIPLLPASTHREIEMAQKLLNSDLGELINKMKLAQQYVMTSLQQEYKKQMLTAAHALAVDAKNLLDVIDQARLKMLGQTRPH
# Description: as §1
# FLT1 = FLT1 (Homo sapiens (Human), UniProt P17948); test: KINOMEscan competitive binding assay; conditions: 10 uM
# Description: as §1
# FLT3 D835Y = FLT3 D835Y (Homo sapiens (Human), UniProt P36888, D835Y); test: KINOMEscan competitive binding assay; conditions: 10 uM
# Description: as §1
# FLT3(ITD) = test: KINOMEscan competitive binding assay; conditions: 10 uM
# Description: as §1
# FLT3(N841I) = FLT3(N841I) (Homo sapiens (Human), UniProt P36888, N841I); test: KINOMEscan competitive binding assay; conditions: 10 uM
# Description: as §1
# FLT4 = FLT4 (Homo sapiens (Human), UniProt P35916); test: KINOMEscan competitive binding assay; conditions: 10 uM
# Description: as §1
# GSK3B = GSK3B (Homo sapiens (Human), UniProt P49841); test: KINOMEscan competitive binding assay; conditions: 10 uM
# Description: as §1
# IGF1R = IGF1R (Homo sapiens (Human), UniProt P08069); test: KINOMEscan competitive binding assay; conditions: 10 uM
# Description: as §1
# INSR = INSR (Homo sapiens (Human), UniProt P06213); test: KINOMEscan competitive binding assay; conditions: 10 uM
# Description: as §1
# JNK1 = JNK1 (Homo sapiens (Human), UniProt P45983); test: KINOMEscan competitive binding assay; conditions: 10 uM
# Description: as §1
# KIT(D616V) = test: KINOMEscan competitive binding assay; conditions: 10 uM
# Description: as §1
# KIT(V559D) = KIT(V559D) (Homo sapiens (Human), UniProt P10721, V559D); test: KINOMEscan competitive binding assay; conditions: 10 uM
# Description: as §1
# KIT(V559D, T670I) = KIT(V559D, T670I) (Homo sapiens (Human), UniProt P10721, T670I/V559D); test: KINOMEscan competitive binding assay; conditions: 10 uM
# Description: as §1
# LIMK2 = LIMK2 (Homo sapiens (Human), UniProt P53671); test: KINOMEscan competitive binding assay; conditions: 10 uM
# Description: as §1
# LKB1 = LKB1 (Homo sapiens (Human), UniProt Q15831); test: KINOMEscan competitive binding assay; conditions: 10 uM
# Description: as §1
# MEK1 = MEK1 (Homo sapiens (Human), UniProt Q02750); test: KINOMEscan competitive binding assay; conditions: 10 uM
# Chain of MEK1 (Q02750 whole entry): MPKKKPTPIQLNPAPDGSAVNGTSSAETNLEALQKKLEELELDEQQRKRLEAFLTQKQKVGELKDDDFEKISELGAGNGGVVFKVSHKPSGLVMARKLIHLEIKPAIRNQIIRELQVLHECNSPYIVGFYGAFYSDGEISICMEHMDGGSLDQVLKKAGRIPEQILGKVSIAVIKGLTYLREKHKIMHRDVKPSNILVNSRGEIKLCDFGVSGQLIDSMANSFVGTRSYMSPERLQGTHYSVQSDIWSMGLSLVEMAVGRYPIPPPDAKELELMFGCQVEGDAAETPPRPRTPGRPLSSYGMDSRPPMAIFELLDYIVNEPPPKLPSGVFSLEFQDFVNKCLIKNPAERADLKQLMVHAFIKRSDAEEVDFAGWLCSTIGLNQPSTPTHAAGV
# Description: as §1
# MET = MET (Homo sapiens (Human), UniProt P08581); test: KINOMEscan competitive binding assay; conditions: 10 uM
# Description: as §1
# PAK4 = PAK4 (Homo sapiens (Human), UniProt O96013); test: KINOMEscan competitive binding assay; conditions: 10 uM
# Description: as §1
# PIK3CA = PIK3CA (Homo sapiens (Human), UniProt P42336); test: KINOMEscan competitive binding assay; conditions: 10 uM
# Chain of PIK3CA (P42336 whole entry): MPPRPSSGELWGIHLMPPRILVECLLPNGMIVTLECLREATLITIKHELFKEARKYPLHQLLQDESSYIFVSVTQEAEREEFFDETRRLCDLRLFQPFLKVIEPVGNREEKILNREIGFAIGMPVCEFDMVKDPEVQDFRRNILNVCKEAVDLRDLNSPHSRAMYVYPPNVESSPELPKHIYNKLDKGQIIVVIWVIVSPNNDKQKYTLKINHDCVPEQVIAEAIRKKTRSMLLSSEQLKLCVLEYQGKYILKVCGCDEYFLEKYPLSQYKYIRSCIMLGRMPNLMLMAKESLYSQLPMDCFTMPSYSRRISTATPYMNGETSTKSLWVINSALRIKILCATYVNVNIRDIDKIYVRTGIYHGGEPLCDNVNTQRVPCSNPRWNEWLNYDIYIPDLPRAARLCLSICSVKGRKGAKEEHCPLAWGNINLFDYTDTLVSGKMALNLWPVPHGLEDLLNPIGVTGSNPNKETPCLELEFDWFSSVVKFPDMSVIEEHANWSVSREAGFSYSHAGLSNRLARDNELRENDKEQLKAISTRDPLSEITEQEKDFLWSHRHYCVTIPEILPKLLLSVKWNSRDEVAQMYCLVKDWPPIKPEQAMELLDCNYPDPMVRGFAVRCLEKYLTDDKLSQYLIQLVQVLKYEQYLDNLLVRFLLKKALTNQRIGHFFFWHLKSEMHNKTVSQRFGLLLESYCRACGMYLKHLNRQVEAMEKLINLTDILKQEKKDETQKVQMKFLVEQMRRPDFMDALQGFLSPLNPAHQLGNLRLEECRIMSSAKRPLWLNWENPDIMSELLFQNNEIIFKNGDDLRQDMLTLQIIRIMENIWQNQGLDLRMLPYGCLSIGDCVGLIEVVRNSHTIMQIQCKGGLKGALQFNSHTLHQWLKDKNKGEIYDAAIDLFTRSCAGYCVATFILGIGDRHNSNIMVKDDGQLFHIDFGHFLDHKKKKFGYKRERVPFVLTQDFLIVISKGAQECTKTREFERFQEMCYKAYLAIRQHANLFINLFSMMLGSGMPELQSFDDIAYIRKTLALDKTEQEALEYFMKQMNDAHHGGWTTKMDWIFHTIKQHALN
# Description: as §1
# PRKCD = PRKCD (Homo sapiens (Human), UniProt Q05655); test: KINOMEscan competitive binding assay; conditions: 10 uM
# Chain of PRKCD (Q05655 whole entry): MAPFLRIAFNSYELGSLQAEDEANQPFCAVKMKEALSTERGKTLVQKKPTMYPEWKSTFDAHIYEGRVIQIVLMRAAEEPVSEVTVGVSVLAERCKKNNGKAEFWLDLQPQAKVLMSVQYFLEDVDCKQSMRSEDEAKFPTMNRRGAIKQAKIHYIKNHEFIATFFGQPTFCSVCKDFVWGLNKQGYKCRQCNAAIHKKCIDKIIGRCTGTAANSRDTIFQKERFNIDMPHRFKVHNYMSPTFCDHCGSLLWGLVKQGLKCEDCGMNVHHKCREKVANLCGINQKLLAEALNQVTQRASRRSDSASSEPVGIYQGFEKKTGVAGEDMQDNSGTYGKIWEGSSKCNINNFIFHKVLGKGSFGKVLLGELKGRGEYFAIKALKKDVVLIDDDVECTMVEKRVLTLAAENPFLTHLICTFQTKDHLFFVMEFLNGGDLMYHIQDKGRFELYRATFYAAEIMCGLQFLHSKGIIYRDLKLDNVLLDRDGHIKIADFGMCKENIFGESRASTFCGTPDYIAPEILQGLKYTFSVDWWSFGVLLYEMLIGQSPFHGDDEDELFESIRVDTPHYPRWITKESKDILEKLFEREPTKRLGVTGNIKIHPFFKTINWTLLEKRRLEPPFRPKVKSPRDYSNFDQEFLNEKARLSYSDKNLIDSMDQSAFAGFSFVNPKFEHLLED
# Description: as §1
# RIPK1 = RIPK1 (Homo sapiens (Human), UniProt Q13546); test: KINOMEscan competitive binding assay; conditions: 10 uM
# Description: as §1
# TIE1 = TIE1 (Homo sapiens (Human), UniProt P35590); test: KINOMEscan competitive binding assay; conditions: 10 uM
# Description: as §1
# TIE2 = TIE2 (Homo sapiens (Human), UniProt Q02763); test: KINOMEscan competitive binding assay; conditions: 10 uM
# Description: as §1
# TRKA = TRKA (Homo sapiens (Human), UniProt P04629); test: KINOMEscan competitive binding assay; conditions: 10 uM
# Description: as §1
# A549 cells = test: Cell proliferation assay (BrdU ELISA) in A549 cells; assay type: cell-based; conditions: A549, low serum DMEM (0.5% FBS), 72 h
# Method: A549 cells, which endogenously express oncogenic K-RAS, were plated at 2500 cells/well of a 96-well plate in low serum DMEM (0.5% fetal bovine serum) overnight. The next morning, compounds were serially diluted in DMSO and resuspended in fresh DMEM+0.5% medium, which was added to the cells for 72 h. At this time point the cells were fixed and proliferation was quantified using an ELISA for bromodeoxyuriding incorporation (BrdU ELISA, Millipore, Inc.). BrdU incorporation occurs during S phase and is the classical method for determining cell proliferation rates. In FIG. 14B-C, BrdU incorporation is expressed as a percentage of the BrdU incorporation occurring in cells treated with 0.1% DMSO as control. A dotted line represents the growth rate of cells treated with DMSO alone. […] (FIG. 13C)
compound,measurement,setting,value
CSc1nc(N)cc(Oc2ccc(-c3nnc(Nc4cccc(C(F)(F)F)c4)[nH]3)cc2)n1 [Compound 6],% Control,AMPK-alpha1,72%
same,% Control,ARK5,70%
same,% Control,AXL,87%
same,% Control,BMX,97%
same,% Control,BRAF(V600E),98%
same,% Control,CDK2,87%
same,% Control,CDK3,91%
same,% Control,CDK5,88%
same,% Control,CDK7,97%
same,% Control,CLK2,84%
same,% Control,EPHA2,100%
same,% Control,EPHB4,94%
same,% Control,ERK2,90%
same,% Control,FAK,100%
same,% Control,FLT1,81%
same,% Control,FLT3 D835Y,18%
same,% Control,FLT3(ITD),3.1%
same,% Control,FLT3(N841I),3.1%
same,% Control,FLT4,100%
same,% Control,GSK3B,90%
same,% Control,IGF1R,100%
same,% Control,INSR,100%
same,% Control,JNK1,98%
same,% Control,KIT(D616V),76%
same,% Control,KIT(V559D),0.1%
same,% Control,"KIT(V559D, T670I)",56%
same,% Control,LIMK2,72%
same,% Control,LKB1,100%
same,% Control,MEK1,84%
same,% Control,MET,94%
same,% Control,PAK4,100%
same,% Control,PIK3CA,100%
same,% Control,PRKCD,74%
same,% Control,RIPK1,84%
same,% Control,TIE1,76%
same,% Control,TIE2,88%
same,% Control,TRKA,64%
same,cell proliferation (BrdU incorporation) versus DMSO control,A549 cells,inhibitor cell proliferation
